Results from patent US20230172962A1, “NRTIS, NRTI METABOLITES, AND NRTI ANALOGS FOR MACULAR DEGENERATION AND VIRAL INFECTIONS” (priority 2020, published 2023).

Experiments:
[1] = Cataract formation after administration of fluoxetine preparations to the eye; assay type: in vivo
[2] = tested on: laser-induced choroidal neovascularization (CNV); assay: Laser-induced choroidal neovascularization, mouse model of neovascular (wet) macular degeneration; assay type: in vivo; details: wild-type C57BL/6J mice, CNV lesion volume 7 days after laser; FIGS. 3A, 3B, 4
Description: (§1) Animals. Both male and female wild-type (WT) C57BL/6J mice (The Jackson Laboratory, Bar Harbor, Me., United States of America) between 6-10 weeks of age were used in this study. For all procedures, anesthesia was achieved by intraperitoneal injection of 100 mg/kg ketamine hydrochloride (Fort Dodge Animal Health, Overland Park, Kans., United States of America) and 10 mg/kg xylazine (Phoenix Scientific, Inc., St. Joseph, Mo., United States of America), and pupils were dilated with topical 1% tropicamide and 2.5% phenylephrine hydrochloride (Alcon Laboratories, Inc., Ft. Worth, Tex., United States of America). All animal experiments were approved by the Institutional Animal Care and Use Committees of the University of Virginia (Charlottesville, Va., United States of America) and was performed in accordance with the Statement for the Use of Animals in Ophthalmic and Visual Research of the Association for Research in Vision and Ophthalmology (Washington, D.C., United States of America).
(§2) Subretinal and intravitreous injections. Subretinal injections (SRI) (1 μl) and intravitreous injections (0.5 μl) in mice were performed using a 35-gauge needle (Ito Co.). In vitro transcribed Alu RNA (300 ng/μl) was injected into the subretinal space via SRI. 1 mM of 3′-Azido-3′-deoxythymidine β-D-glucuronide (GAZT; Cayman Chemical, Ann Arbor, Mich., United States of America), Lamivudine (R)-sulfoxide (LSO; Toronto Research Chemicals, Toronto, Canada) 2 mM of 3′-Amino-3′-deoxythymidine (AMT; Toronto Research Chemicals), or PBS was injected into the vitreous humor. Kamuvudines including but not limited to K-8 (2-Et-AZT) and K-9 (3-Me-3TC, a.k.a. 3-Me-lamivudine) were previously described (see U.S. Pat. No. 10,294,220, which is incorporated herein by reference in its entirety).
Choroidal neovascularization. Experimental choroidal neovascularization (CNV) was induced via laser photocoagulation (OcuLight GL, IRIDEX Corp., Mountain View, Calif., United States of America; 180 mW, 100 ms, 75 μm) in both eyes. The volume of the CNV lesions was measured after 7 days using a scanning laser confocal microscope (A1R Nikon confocal microscope system, Nikon USA, Melville, N.Y., United States of America) after 0.7% FITC-isolectin B4 staining (Vector Laboratories, Burlingame, Calif., United States of America, USA). The volume of each lesion was calculated using FIJI software (Schindelin et al., 2012).
The ability of NRTI, NRTI metabolites, and NRTI analogs to inhibit neovascular (wet) macular degeneration in a mouse model was tested. The results are shown in FIGS. 3A and 3B and in FIG. 4.

[3] = tested on: cleavage of pro-caspase-1 into active caspase-1 (NLRP3 inflammasome activation); assay: Western blot of Alu RNA-induced caspase-1 cleavage (inflammasome activation) in BMDMs; assay type: cell-based; details: mouse BMDMs, 200 μM compound for 1 hour, then Alu RNA transfection overnight, FIG. 1
Description: (§3) Cell Stimulation. Bone marrow derived macrophages (BMDMs) were treated with 200 μM Zidovudine (AZT), GAZT, AMT, or LSO for 1 hour. Cells were transfected with Alu RNA overnight using Lipofectamine 3000 (Invitrogen) according to manufacturer's instructions.
Western blotting. Serum free media (1 mL) from stimulated BMDMs was transferred into fresh tubes and centrifuged for 10 min at 12,000 rpm at 4° C. 15 μl of 10% sodium deoxycholate was added to the supernatants, vortexed and kept on ice. 72 μl Trichloroacetic acid (Sigma-Aldrich, St. Louis,. Mo., United States of America) was subsequently added and the tubes were kept on ice overnight. After centrifugation for 30 min at 12,000 rpm at 4° C., the pellet was washed twice with 500 μl ice-cold acetone. The pellet was dried and boiled with LDS Sample Buffer and β-mercaptoethanol (Sigma-Aldrich). The precipitated protein was analyzed by immunoblotting.
The ability of NRTI and NRTI metabolites to inhibit inflammasome activation was tested by western blot.

[4] = tested on: IL-1β release; assay: ELISA of Alu RNA-induced IL-1β release from BMDMs; assay type: cell-based; details: mouse BMDMs, 200 μM compound for 1 hour, then Alu RNA transfection overnight, FIG. 2
Description: as §3
Enzyme-linked immunosorbent assay (ELISA). 1.2 million cells/mL were seeded per well in 6-well cell culture dishes overnight and stimulated as mentioned above. Secreted mouse IL-1β in the medium were detected by ELISA (R&D Systems, Inc., Minneapolis, Minn., United States of America) according to the manufacturer's instructions.
The ability of NRTI and NRTI metabolites to inhibit IL-1β release was tested by ELISA.

[5] = tested on: retinal pigmented epithelium (RPE); assay: Alu RNA-induced RPE degeneration, mouse model of atrophic (dry) macular degeneration; assay type: in vivo; details: mice, subretinal Alu RNA, intravitreous 1 mM GAZT or LSO, 2 mM AMT; ZO-1 RPE flat mounts 7 days after injection; FIG. 5
Description: as §1, §2

[6] = tested on: subretinal fibrosis; assay: Subretinal fibrosis after laser injury / subretinal Alu RNA in mice; assay type: in vivo, mouse; details: wild-type mice, intravitreous injection, laser injury with subretinal Alu RNA, collagen type 1 staining after 7 days, FIGS. 6B
Description: as §1
Subretinal and intravitreous injections. Subretinal injections (SRI) (1 μl) and intravitreous injections (0.5 μl) in mice were performed using a 35-gauge needle (Ito Co.). […]
Subretinal fibrosis. […] After mounting in slides, the RPE flat mounts were imaged using a scanning laser confocal microscope (A1R Nikon confocal microscope system, Nikon USA) and the volume of each lesion was calculated by FIJI software. […]

cataract formation, share of subjects [1] | Structure (SMILES) | laser-induced choroidal neovascularization (CNV) volume [2] | Alu RNA-induced cleavage of pro-caspase-1 (50 kDa band) into active caspase-1 (20 kDa band) [3] | Alu RNA-induced IL-1β release [4] | Alu RNA-induced RPE degeneration [5] | subretinal fibrosis volume [6]
up to 50% | CNCCC(Oc1ccc(C(F)(F)F)cc1)c1ccccc1 (racemic) [racemic fluoxetine, fluoxetine] |  |  |  |  | 
 | Cc1cn([C@H]2C[C@H](N)[C@@H](CO)O2)c(=O)[nH]c1=O [AMT, 3′-Amino-3′-deoxythymidine] | inhibited | inhibited | inhibited | inhibited | 
 | Cc1cn([C@H]2C[C@H](N=[N+]=[N-])[C@@H](CO)O2)c(=O)[nH]c1=O [AZT, 1-[(2R,4S,5S)-4-Azido-5-(hydroxymethyl)oxolan-2-yl]-5-methylpyrimidine-2,4-dione, reference compound] | inhibited | inhibited | inhibited |  | reduced subretinal fibrosis volume
 | Cc1cn([C@H]2C[C@H](N=[N+]=[N-])[C@@H](CO[C@@H]3O[C@H](C(=O)O)[C@@H](O)[C@H](O)[C@H]3O)O2)c(=O)[nH]c1=O [GAZT, 3′-Azido-3′-deoxythymidine β-D-glucuronide] | inhibited | inhibited | inhibited | inhibited | 
 | CCOC[C@H]1O[C@@H](n2cc(C)c(=O)n(CC)c2=O)C[C@@H]1N=[N+]=[N-] [Kamuvudine K-8, 1-[(2R,4S,5S)-4-azide-5-(ethoxymethyl)oxolan-2-yl)-3-ethyl-5-methyl-1,2,3,4-etrahydropyrimidine-2,4-dione] | inhibited |  |  |  | reduced the volume of subretinal fibrosis
 | CCOCC1OC(n2ccc(N(CC)CC)nc2=O)CS1 (stereo not drawn) [Kamuvudine K-9] | inhibited |  |  |  | 
 | Nc1ccn([C@@H]2C[S@@+]([O-])[C@H](CO)O2)c(=O)n1 [LSO, Lamivudine (R)-sulfoxide] |  |  | inhibited | inhibited | 
